Methemoglobin data for nine compounds are collected here from ChEMBL document CHEMBL1131958, “Synthesis of bisquinolines and their in vitro ability to produce methemoglobin in canine hemolysate” (1999).

Activity calls are given as the source filed them. The calls are words filed in the database; no cut-off is given here.

The species entered for experiment [1] is Canis familiaris. Kind of experiment: In vitro effect on methemoglobin formation in blood of dog at 5 mM concentration; Nil. The format is functional. To be noted: Canis lupus familiaris.
The species named for experiment [2] is Canis familiaris. Kind of experiment: In vitro effect on methemoglobin formation in blood of dog at 1 mM concentration; Nil. To be noted: Canis lupus familiaris. It counts as functional.
For experiment [3], the species on record is Canis familiaris. Kind of experiment: In vitro effect on methemoglobin formation in blood of dog at 5 mM concentration. It counts as functional, Canis lupus familiaris.
The species entered for experiment [4] is Canis familiaris. Kind of experiment: In vitro effect on methemoglobin formation in blood of dog at 1 mM concentration. It counts as functional, Canis lupus familiaris.

Consider `O=C(O)C(CCCCNc1ccnc2cc(Cl)ccc12)Nc1ccnc2cc(Cl)ccc12` (stereo not drawn), for which the Methemoglobin entry in the experiment listed under Canis familiaris [1] and in the experiment listed under Canis familiaris [2] was “Nil” each time.
`O=[N+]([O-])c1cc2c(NCCCCNc3ccnc4cc(Cl)c([N+](=O)[O-])cc34)ccnc2cc1Cl`: the Methemoglobin is reported as 6.42% in the experiment filed under Canis familiaris [3] and “Nil” in the experiment filed under Canis familiaris [2].
The corresponding values for `O=C(O)C(CCCNc1ccnc2cc(Cl)ccc12)Nc1ccnc2cc(Cl)ccc12` (stereo not drawn) are 6.89% and “Nil”.
For the compound `COc1cc(NC(C)CCCN)c2ncccc2c1` (stereo not drawn) [PRIMAQUINE], the results for the Methemoglobin in the experiment listed under Canis familiaris [3] and in the experiment filed under Canis familiaris [4] were 87.6% and 11.52%, respectively.
Take `Clc1ccc2c(NCCN3CCN(c4ccnc5cc(Cl)ccc45)CC3)ccnc2c1`: the Methemoglobin result in the experiment listed under Canis familiaris [3] (Canis lupus familiaris) and in the experiment listed under Canis familiaris [2] was “Nil” in each case.
Consider `Clc1ccc2c(NCCNCCCCNCCNc3ccnc4cc(Cl)ccc34)ccnc2c1`, for which the Methemoglobin in the experiment filed under Canis familiaris [3] is 3%; in the experiment listed under Canis familiaris [2], “Nil”.
As for `N/C(=N\CCCC(Nc1ccnc2cc(Cl)ccc12)C(=O)O)Nc1ccnc2cc(Cl)ccc12` (stereo not drawn), the results for the Methemoglobin in the experiment filed under Canis familiaris [3] and in the experiment filed under Canis familiaris [2] were 1.5% and “Nil”, respectively.
As to `Clc1ccc2c(NCCCCNc3ccnc4cc(Cl)ccc34)ccnc2c1`, the Methemoglobin turned out to be 90.8% in the experiment listed under Canis familiaris [3] and 29.5% in the experiment filed under Canis familiaris [4].
On to `CCN(CC)CCCC(C)Nc1ccnc2cc(Cl)ccc12` (stereo not drawn), for which the Methemoglobin result in the experiment listed under Canis familiaris [1] and in the experiment listed under Canis familiaris [2] was “inactive” each time.
